Patent US10383838B2, “Concentrated liquid diet” (The Nisshin OilliO Group, Ltd., priority 2008, dated 2019)

System: gastric mucosa of rat
Assay: Test for investigating irritation of gastric mucosa in rat
Assay type: in vivo, Wistar rats
Details: oral after fasting 18 hrs, dose 2 g/kg BW, stomach observed 1 hour after administration
Method: Five male 10-week old Wistar rats having a body weight of about 200 g (Japan SLC, Inc.) as one test group were subjected to tests by administration. […] The amount of the triglyceride administered was 2 g per kg of body weight. After placing at rest for 1 hour following the administration, an incision was made in the abdomen under anesthesia, and the stomach was extirpated. Then, the extirpated stomach was incised along the greater curvature, and the gastric mucosa was washed with physiological saline and visually observed, with use of a loupe as needed. It should be noted that evaluation in connection with the irritation of gastric mucosa was made in accordance with a method described in a document (Yakugaku Zasshi 89 (8): 1114-1118, 1978). The criteria of evaluation are shown below.
(−): Nine or less areas of patchy redness found.
(+): Ten or more areas of patchy redness found, and sum total of each length of erosion being no greater than 2 mm.
(++): Twenty or more areas of patchy redness found, and sum total of each length of erosion being no greater than 10 mm.
(+++): Sum total of each length of ulcer, or erosion being no less than 10 mm.
It is to be noted that when evaluation was made as (−), the number of areas of patchy redness was counted.

CCO [Positive Control Group, ethanol]
Irritation of gastric mucosa: (+++) (Sum total of each length of ulcer, or erosion being no less than 10 mm.)
